Results reported in patent US4056674A, “Derivatives of 3-deazaguanine” (priority 1975, dated 1977).
Converted amounts (≈) assume the structure as drawn. “And” between values parts separate entries of the source, which are not always exact repeats. Identical values can stand only once.

How the values were obtained:
adenocarcinoma 755 = test: Inhibition of growth of subcutaneous implants of adenocarcinoma 755 in C57 Blk/6 female mice; type: in vivo; conditions: 40 mg/kg i.p. (qd, 1-7)
influenza virus, type Ao = test: In vitro antiviral, inhibition of virus-induced CPE, IV/Ao; type: cell-based; conditions: KB or RK-13 cells, VR >0.5 significant, <0.5 slight antiviral activity
rhinovirus, type 8 = test: In vitro antiviral, inhibition of virus-induced CPE, RV/8; type: cell-based; conditions: KB or RK-13 cells, VR >0.5 significant, <0.5 slight antiviral activity
Hela cells = test: Cytotoxicity to Hela cells in tissue culture; type: cell-based
rhinovirus, type 30 = test: In vitro antiviral, inhibition of virus-induced CPE, RV/30; type: cell-based; conditions: KB or RK-13 cells, VR >0.5 significant, <0.5 slight antiviral activity
Experimental: (§1) In this example, compounds 3, 4, 13, 16, 20, 22, 29 and 30 were tested to determine their in vitro antiviral efficacy, using the inhibition virus-induced cytopathogenic effect (CPE) method of Sidwell, et al. (Applied Microbiology 22:797-801, 1971). Briefly, the CPE procedure includes the suspension of the antiviral agent in a cell culture medium consisting of vitamins, amino acids, serum, buffer, penicillin, streptomycin and indicator dye in water. The virus suspended in the cell culture medium was added to an established monolayer of KB cells or RK-13 cells, and an equal volume of the antiviral agent was then added within 15 minutes. The infected treated cells were graded following microscopic examination. Controls for each experiment include cell controls cells and cell culture medium only), virus controls (cell and virus cell culture medium) and toxicity controls (cells and chemical and cell culture medium).
(§2) The virus rating (VR) system of Sidwell et al., described in Applied Microbiology, supra, was used to evaluate the degree of significance of CPE inhibition.

adenovirus, type 3 = test: In vitro antiviral, inhibition of virus-induced cytopathogenic effect (CPE), AV/3; type: cell-based; conditions: KB or RK-13 cells, VR >0.5 significant, <0.5 slight antiviral activity
[1] = test system: Parainfluenza virus, type 3; test: In vitro antiviral, inhibition of virus-induced CPE, PIV/3; type: cell-based; conditions: PIV/3; KB or RK-13 cells; VR >0.5 significant, <0.5 slight antiviral activity
RV/2: rhinovirus, type 1 = test: In vitro antiviral, inhibition of virus-induced CPE, RV/2; type: cell-based; conditions: KB or RK-13 cells, VR >0.5 significant, <0.5 slight antiviral activity
Proteus = test: In vitro antibacterial, broth dilution assay, Proteus; type: cell-based; conditions: 24 h, read-out: Average MIC
Experimental: (§3) In this example compounds 7 and 30 were tested to determine their in vitro antibacterial activity. Clinical isolates of pathogens were used for this example. In vitro sensitivity of these organisms were quantitatively determined by broth dilution assay. Serial dilutions were prepared in chemically defined medium in a range from 100 to 0.01 μg/ml. The minimal Inhibitory Concentration (MIC) was recorded as the highest dilution of compound which prevented visible growth of the pathogen following 24 hr incubation at 35°.

myxoma virus = test: In vitro antiviral, inhibition of virus-induced CPE, MV; type: cell-based; conditions: KB or RK-13 cells, VR >0.5 significant, <0.5 slight antiviral activity
Experimental: as §1, §2

[2] = test system: vesicular stomatitis virus; type: cell-based; conditions: VSV; KB or RK-13 cells; VR >0.5 significant, <0.5 slight antiviral activity
L1210 cells [3] = test: Cytotoxicity to L1210 cells in tissue culture; type: cell-based
Experimental: (§4) In this example compound 30 was tested for antitumor activity in mice. […] A 10^-5 M concentration of compound 30 caused 50% inhibition of the incorporation of ^3 H-thymidine and ^3 H-uridine into the acidinsoluble fraction of L1210 cells in tissue culture. […] Ara C (cytosine arabinoside) was included as a standard.

pseudorabies virus = type: cell-based; conditions: PRV; KB or RK-13 cells; VR >0.5 significant, <0.5 slight antiviral activity
murine cytomegalovirus = test: In vitro antiviral, inhibition of virus-induced CPE, MCMV; type: cell-based; conditions: KB or RK-13 cells, VR >0.5 significant, <0.5 slight antiviral activity
Experimental: as §1, §2

L1210 cells [4] = test: Inhibition of incorporation of 3H-uridine into the acid-insoluble fraction of L1210 cells; type: cell-based; conditions: Mus musculus; 10^-5 M; L1210 cells in tissue culture
Experimental: as §4

rhinovirus, type 13 = test: In vitro antiviral, inhibition of virus-induced CPE, RV/13; type: cell-based; conditions: KB or RK-13 cells, VR >0.5 significant, <0.5 slight antiviral activity
L1210 cells [5] = test: Inhibition of incorporation of 3H-thymidine into the acid-insoluble fraction of L1210 cells; type: cell-based; conditions: Mus musculus; 10^-5 M; L1210 cells in tissue culture
Experimental: as §4

[6] = test system: herpes simplex virus, type 1; test: In vitro antiviral, inhibition of virus-induced CPE, HSV/1; type: cell-based; conditions: KB or RK-13 cells, VR >0.5 significant, <0.5 slight antiviral activity
[7] = test system: parainfluenza virus, type 1; test: In vitro antiviral, inhibition of virus-induced CPE, PIV/1; type: cell-based; conditions: PIV/1; KB or RK-13 cells; VR >0.5 significant, <0.5 slight antiviral activity
human cytomegalovirus = test: In vitro antiviral, inhibition of virus-induced CPE, HCMV; type: cell-based; conditions: KB or RK-13 cells, VR >0.5 significant, <0.5 slight antiviral activity
Escherichis = test: In vitro antibacterial, broth dilution assay, Escherichia; type: cell-based; conditions: 24 h, read-out: Average MIC
Experimental: as §3

vaccinia virus = type: cell-based; conditions: VV; KB or RK-13 cells; VR >0.5 significant, <0.5 slight antiviral activity
leukemia L1210 = test: Activity against leukemia L1210 in BDF1 female mice; type: in vivo; conditions: qd [1-9]
Experimental: as §4
All animals were inoculated (i.p) with 10^5 leukemic cells. Treatment
was started 24 hours after transplant. Figures in parenthesis denote 21

LD10 = test: LD10; design: species or system mice; conditions: mouse, in vivo
rhinovirus, type 56 = test: In vitro antiviral, inhibition of virus-induced CPE, RV/56; type: cell-based; conditions: KB or RK-13 cells, VR >0.5 significant, <0.5 slight antiviral activity
rhinovirus, type 1A = test: In vitro antiviral, inhibition of virus-induced CPE, RV/1A; type: cell-based; conditions: KB or RK-13 cells, VR >0.5 significant, <0.5 slight antiviral activity

**Q.** Which “inhibition of the growth of subcutaneous implants” value (adenocarcinoma 755) does the source give for `Nc1cc2nc[nH]c2c(=O)[nH]1` [Compound 30, 6-Amino-imidazo[4,5c]pyridin-4(5H)one] here?
**A.** 75% and 93%

**Q.** And the “Virus rating (VR)” value (influenza virus, type Ao)?
**A.** 0.5

**Q.** What about the “Virus rating (VR)” value (rhinovirus, type 8) of the same compound?
**A.** 1.3

**Q.** And the “cytotoxic to Hela cells” value (Hela cells)?
**A.** cytotoxic

**Q.** What about the “Virus rating (VR)” value (rhinovirus, type 30) of the same compound?
**A.** 0.3

**Q.** What about the “Virus rating (VR)” value (adenovirus, type 3) of the same compound?
**A.** 1.1

**Q.** What about the “Virus rating (VR)” value [1] of the same compound?
**A.** 1.0

**Q.** What about the “Virus rating (VR)” value (RV/2: rhinovirus, type 1) of the same compound?
**A.** 1.3

**Q.** What about the MIC (Proteus) of the same compound?
**A.** 25 µg/mL (≈ 167 µM)

**Q.** And the “Virus rating (VR)” value (myxoma virus)?
**A.** 0.9

**Q.** What about the “Virus rating (VR)” value [2] of the same compound?
**A.** 1.3

**Q.** What about the “cytotoxic to L1210 cells” value (L1210 cells [3]) of the same compound?
**A.** cytotoxic

**Q.** And the “Virus rating (VR)” value (pseudorabies virus)?
**A.** 0.3

**Q.** What about the “Virus rating (VR)” value (murine cytomegalovirus) of the same compound?
**A.** 0.6

**Q.** What about the inhibition at 10 µM (L1210 cells [4]) of the same compound?
**A.** 50%

**Q.** And the “Virus rating (VR)” value (rhinovirus, type 13)?
**A.** 1.2

**Q.** And the inhibition at 10 µM (L1210 cells [5])?
**A.** 50%

**Q.** And the “Virus rating (VR)” value [6]?
**A.** 1.3

**Q.** What about the “Virus rating (VR)” value [7] of the same compound?
**A.** 1.0

**Q.** What about the “Virus rating (VR)” value (human cytomegalovirus) of the same compound?
**A.** 0.3

**Q.** And the MIC (Escherichis)?
**A.** 6 µg/mL (≈ 40 µM)

**Q.** What about the “Virus rating (VR)” value (vaccinia virus) of the same compound?
**A.** 1.2

**Q.** What about the 21 day survivors (leukemia L1210; 20 mg/kg i.p.) of the same compound?
**A.** 0/6

**Q.** What about the “Average Mean Survival” value (leukemia L1210; 20 mg/kg i.p.) of the same compound?
**A.** 10.83 days

**Q.** What about the T/C (leukemia L1210; 20 mg/kg i.p.) of the same compound?
**A.** 1.32

**Q.** What about the “increased the life span” value (leukemia L1210; 20 mg/kg i.p.) of the same compound?
**A.** 32%

**Q.** What about the ΔWt. (leukemia L1210; 20 mg/kg i.p.) of the same compound?
**A.** +2.0 g

**Q.** What about the 21 day survivors (leukemia L1210; 40 mg/kg i.p.) of the same compound?
**A.** 1/6

**Q.** What about the “Average Mean Survival” value (leukemia L1210; 40 mg/kg i.p.) of the same compound?
**A.** 12.00 days

**Q.** And the T/C (leukemia L1210; 40 mg/kg i.p.)?
**A.** 1.43

**Q.** What about the “increased the life span” value (leukemia L1210; 40 mg/kg i.p.) of the same compound?
**A.** 43%

**Q.** What about the ΔWt. (leukemia L1210; 40 mg/kg i.p.) of the same compound?
**A.** +0.4 g

**Q.** What about the 21 day survivors (leukemia L1210; 80 mg/kg i.p.) of the same compound?
**A.** 0/6

**Q.** What about the “Average Mean Survival” value (leukemia L1210; 80 mg/kg i.p.) of the same compound?
**A.** 13.33 days

**Q.** What about the T/C (leukemia L1210; 80 mg/kg i.p.) of the same compound?
**A.** 1.63

**Q.** And the “increased the life span” value (leukemia L1210; 80 mg/kg i.p.)?
**A.** 63%

**Q.** What about the ΔWt. (leukemia L1210; 80 mg/kg i.p.) of the same compound?
**A.** +1.7 g

**Q.** And the LD10 (LD10)?
**A.** 500 mg/kg

**Q.** And the “Virus rating (VR)” value (rhinovirus, type 56)?
**A.** 1.1

**Q.** What about the “Virus rating (VR)” value (rhinovirus, type 1A) of the same compound?
**A.** 0.3
